Data on 20 compounds can be found in US20070249620A1, “Urea Derivative” (priority 2004, published 2007).

Usually melting point stands for the temperature of the solid-liquid transition.

Each structure is given as a SMILES string. Where only a bound is given, the exact number is not on record here.

For one series, the target named is T1, mouse DGAT1 (Mus musculus, UniProt Q9Z2A7).
T1 construct: made in house; host or cells: insect cells (High Five, Sf9, Sf21, etc.), baculovirus expression system (Invitrogen)
T1 sequence (Q9Z2A7 1-498): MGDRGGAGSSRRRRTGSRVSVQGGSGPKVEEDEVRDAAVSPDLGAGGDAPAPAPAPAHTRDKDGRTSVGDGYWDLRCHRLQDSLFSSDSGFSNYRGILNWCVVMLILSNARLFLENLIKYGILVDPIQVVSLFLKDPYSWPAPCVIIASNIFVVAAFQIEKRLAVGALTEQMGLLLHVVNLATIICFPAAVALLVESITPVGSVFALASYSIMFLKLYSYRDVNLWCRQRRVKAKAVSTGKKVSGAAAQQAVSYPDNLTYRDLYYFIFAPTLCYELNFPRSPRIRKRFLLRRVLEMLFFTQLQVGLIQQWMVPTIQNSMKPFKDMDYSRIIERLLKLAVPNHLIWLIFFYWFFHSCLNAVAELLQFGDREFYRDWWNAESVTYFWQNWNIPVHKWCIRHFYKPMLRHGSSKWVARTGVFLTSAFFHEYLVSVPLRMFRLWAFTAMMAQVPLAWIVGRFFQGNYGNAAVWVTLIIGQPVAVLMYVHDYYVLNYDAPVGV
Description: DGAT1 inhibitory effect test (microsome fraction, [14C]-oleoyl-CoA, triglyceride radioactivity by TLC). It counts as biochemical. The note with it: 0.5 h; concentration of the test compound 0.1 μg/ml; mouse DGAT1 microsomes, 23° C., 30 minutes; read-out: Inhibitory ratio. The method, then: The cDNA which encodes mouse DGAT1 was cloned from a mouse cDNA library by polymerase chain reaction (hereinafter referred to as “PCR”) and introduced into an insect cell virus vector (baculovirus expression system, Invitrogen). After insect cells (High Five, Sf9, Sf21, etc., Invitrogen) were infected with the virus, the cells were collected in buffer A [0.1M sucrose, 50 mM KCl, 40 mM potassium phosphate (pH 7.4), 30 mM EDTA, 1% Protease inhibitor cocktail (SIGMA, P-8340)] and crushed with a Polytron homogenizer. The supernatant obtained by subjecting the homogenate to low speed centrifugal processing (10,000 ×g, 30 minutes) was further subjected to higher-speed centrifugal processing (100,000 ×g, 60 minutes) and the precipitate was resuspended in buffer A as the microsome fraction and used as DGAT1 enzyme. The DGAT1 enzyme was divided into small volumes and stored at −80° C.
(2) DGAT1 Inhibitory Effect Test
The reaction liquid of the following composition [175 mM Tris-HCl (pH 8.0), 8 mM MgCl2, 1 mg/ml BSA, 0.5 mM 1,2-dioleoyl-sn-glycerol (EtOH solution of 10-fold concentration, 10% added), 30 μM[14C]-oleoyl-CoA (about 50 mCi/mmol), 0.5% triton X-100, DGAT1 enzyme (10 μg) obtained in Test Example 1(1), test compound or vehicle (DMSO/MeOH, 7:3 solution, 5% added), total volume 50 μl] was incubated at room temperature (23° C.) for 30 minutes. A reaction terminating solution (70 μl) consisting of isopropanol/1-heptane/water (80:20:2, v/v/v) was added to the reaction solution and stirred, and subsequently stirred with water (30 μl) and 1-heptane (100 μl). The 1-heptane layer (50 μl) was spotted onto a TLC plate and developed with a developing solvent consisting of 1-hexane/diethyl ether/acetic acid (85:15:1, v/v/v). Radioactivity of triglyceride fraction was quantified by BAS2000 bio image analyzer (Fuji Film) and the inhibitory effect of the test compounds was calculated by the following formula through comparison with control. Here, radioactivity at no reaction (0 minutes incubation) was assumed as background. Inhibitory ratio=100−[(Radioactivity when test compound was added)−(Background)]/[(Radioactivity by control)−(Background)]×100

As to `CCCCc1ccc(NC(=O)N2CCN(c3ccc(NC(=O)Nc4cc(C)ccc4OC)cc3)CC2)c(C)c1` [Example 75, 4-{4-[3-(2-methoxy-5-methyl-phenyl)-ureido]-phenyl}-piperazine-1-carboxylic acid (4-butyl-2-methyl-phenyl)-amide], the melting point was 172 to 173 °C. Also, the inhibition at 0.1 µg/mL on mouse DGAT1 was not below 50%.

The compound `COc1ccc(C)cc1NC(=O)Nc1ccc(N2CCN(C(=O)Nc3ccc(C)cc3Cl)CC2)cc1` [Example 76, 4-{4-[3-(2-methoxy-5-methyl-phenyl)-ureido]-phenyl}-piperazine-1-carboxylic acid (2-chloro-4-methyl-phenyl)-amide] registered a melting point of 186 to 187 °C. Further, the inhibition at 0.1 µg/mL on mouse DGAT1 is not below 50%.

Compound `COc1ccc(Cl)cc1NC(=O)Nc1ccc(N2CCN(C(=O)Nc3c(F)cccc3F)CC2)cc1` [Example 77, 4-{4-[3-(5-chloro-2-methoxy-phenyl)-ureido]-phenyl}-piperazine-1-carboxylic acid (2,6-difluoro-phenyl)-amide] had a melting point of 230 to 232 °C. Besides, the inhibition at 0.1 µg/mL at mouse DGAT1 is not below 50%.

On to `COc1ccc(Cl)cc1NC(=O)Nc1ccc(N2CCN(C(=O)Nc3ccccc3Cl)CC2)cc1` [Example 78, 4-{4-[3-(5-chloro-2-methoxy-phenyl)-ureido]-phenyl}-piperazine-1-carboxylic acid (2-chloro-phenyl)-amide], for which the melting point was in the range of 231 to 233 °C. Also, the inhibition at 0.1 µg/mL on mouse DGAT1 was not below 50%.

In the case of `COc1ccc(Cl)cc1NC(=O)Nc1ccc(N2CCN(C(=O)Nc3c(C)cccc3Cl)CC2)cc1` [Example 79, 4-{4-[3-(5-chloro-2-methoxy-phenyl)-ureido]-phenyl}-piperazine-1-carboxylic acid (2-chloro-6-methyl-phenyl)-amide], the melting point is 225 to 227 °C. Further, the inhibition at 0.1 µg/mL at mouse DGAT1 was not below 50%.

Compound `CCOc1ccccc1NC(=O)Nc1ccc(N2CCN(C(=O)Nc3ccccc3C(F)(F)F)CC2)cc1` [Example 80, 4-{4-[3-(2-ethoxy-phenyl)-ureido]-phenyl}-piperazine-1-carboxylic acid (2-trifluoromethyl-phenyl)-amide] gave a melting point of 201 to 203 °C. Further, the inhibition at 0.1 µg/mL on mouse DGAT1 is not below 50%.

As for `CCOc1ccccc1NC(=O)Nc1ccc(N2CCN(C(=O)Nc3ccccc3C)CC2)cc1` [Example 81, 4-{4-[3-(2-ethoxy-phenyl)-ureido]-phenyl}-piperazine-1-carboxylic acid o-tolylamide], the melting point lay within 206 to 208 °C. Besides, the inhibition at 0.1 µg/mL on mouse DGAT1 was not below 50%.

On to `CCOc1ccccc1NC(=O)Nc1ccc(N2CCN(C(=O)Nc3c(C)cccc3Cl)CC2)cc1` [Example 82, 4-{4-[3-(2-ethoxy-phenyl)-ureido]-phenyl}-piperazine-1-carboxylic acid (2-chloro-6-methyl-phenyl)-amide], for which the melting point was 215 to 217 °C. Also, the inhibition at 0.1 µg/mL on mouse DGAT1 was not below 50%.

On to `CCOc1ccc(C)cc1NC(=O)Nc1ccc(N2CCN(C(=O)Nc3ccccc3C(F)(F)F)CC2)cc1` [Example 83, 4-{4-[3-(2-ethoxy-5-methyl-phenyl)-ureido]-phenyl}-piperazine-1-carboxylic acid (2-trifluoromethyl-phenyl)-amide], for which the melting point was 219 to 220 °C. Further, at mouse DGAT1, the inhibition at 0.1 µg/mL is not below 50%.

`CCOc1ccc(C)cc1NC(=O)Nc1ccc(N2CCN(C(=O)Nc3ccccc3C)CC2)cc1` [Example 84, 4-{4-[3-(2-ethoxy-5-methyl-phenyl)-ureido]-phenyl}-piperazine-1-carboxylic acid o-tolylamide] had a melting point of 190 to 192 °C. In addition, the inhibition at 0.1 µg/mL at mouse DGAT1 was not below 50%.

The compound `CCOc1ccc(C)cc1NC(=O)Nc1ccc(N2CCN(C(=O)Nc3c(C)cccc3Cl)CC2)cc1` [Example 85, 4-{4-[3-(2-ethoxy-5-methyl-phenyl)-ureido]-phenyl}-piperazine-1-carboxylic acid (2-chloro-6-methyl-phenyl)-amide] returned a melting point of 157 to 159 °C. The inhibition at 0.1 µg/mL at mouse DGAT1 is not below 50%.

`COc1ccc(C)cc1NC(=O)Nc1ccc(N2CCN(C(=O)Nc3ccc(Cl)cc3C(F)(F)F)CC2)cc1` [Example 86, 4-{4-[3-(2-methoxy-5-methyl-phenyl)-ureido]-phenyl}-piperazine-1-carboxylic acid (4-chloro-2-trifluoromethyl-phenyl)-amide] came in with a melting point of 186 to 187 °C. Moreover, the inhibition at 0.1 µg/mL on mouse DGAT1 was not below 50%.

Take `COc1ccc(C)cc1NC(=O)Nc1ccc(N2CCN(C(=O)Nc3ccc(F)cc3C(F)(F)F)CC2)cc1` [Example 87, 4-{4-[3-(2-methoxy-5-methyl-phenyl)-ureido]-phenyl}-piperazine-1-carboxylic acid (4-fluoro-2-trifluoromethyl-phenyl)-amide]: the melting point was in the range of 172 to 174 °C. For the same compound, the inhibition at 0.1 µg/mL on mouse DGAT1 is not below 50%.

In turn, `COc1ccc(C)cc1NC(=O)Nc1ccc(N2CCN(C(=O)Nc3c(C)cc(C)cc3C)CC2)cc1` [Example 88, 4-{4-[3-(2-methoxy-5-methyl-phenyl)-ureido]-phenyl}-piperazine-1-carboxylic acid (2,4,6-trimethyl-phenyl)-amide] gave a melting point of 215 to 217 °C. Further, the inhibition at 0.1 µg/mL on mouse DGAT1 is not below 50%.

`CCOc1ccc(F)cc1NC(=O)Nc1ccc(N2CCN(C(=O)Nc3ccccc3C(F)(F)F)CC2)cc1` [Example 89, 4-{4-[3-(2-ethoxy-5-fluoro-phenyl)-ureido]-phenyl}-piperazine-1-carboxylic acid (2-trifluoromethyl-phenyl)-amide]: the melting point fell in the range of 197 to 199 °C. Besides, the inhibition at 0.1 µg/mL on mouse DGAT1 is not below 50%.

In turn, `CCOc1ccc(F)cc1NC(=O)Nc1ccc(N2CCN(C(=O)Nc3ccccc3C)CC2)cc1` [Example 90, 4-{4-[3-(2-ethoxy-5-fluoro-phenyl)-ureido]-phenyl}-piperazine-1-carboxylic acid o-tolylamide] displayed a melting point of 186 to 187 °C. Also, the inhibition at 0.1 µg/mL on mouse DGAT1 was not below 50%.

With `CCOc1ccc(F)cc1NC(=O)Nc1ccc(N2CCN(C(=O)Nc3c(C)cccc3Cl)CC2)cc1` [Example 91, 4-{4-[3-(2-ethoxy-5-fluoro-phenyl)-ureido]-phenyl}-piperazine-1-carboxylic acid (2-chloro-6-methyl-phenyl)-amide], the melting point was 197 to 199 °C. The inhibition at 0.1 µg/mL on mouse DGAT1 is not below 50%.

The compound `CCOc1ccc(F)cc1NC(=O)Nc1ccc(N2CCN(C(=O)Nc3c(C)cccc3C)CC2)cc1` [Example 92, 4-{4-[3-(2-ethoxy-5-fluoro-phenyl)-ureido]-phenyl}-piperazine-1-carboxylic acid (2,6-dimethyl-phenyl)-amide] showed a melting point of 205 to 206 °C. Also, on mouse DGAT1, the inhibition at 0.1 µg/mL is not below 50%.

`CCOc1ccc(F)cc1NC(=O)Nc1ccc(N2CCN(C(=O)Nc3c(F)cccc3C(F)(F)F)CC2)cc1` [Example 93, 4-{4-[3-(2-ethoxy-5-fluoro-phenyl)-ureido]-phenyl}-piperazine-1-carboxylic acid (2-fluoro-6-trifluoromethyl-phenyl)-amide] registered a melting point of 153 to 155 °C. The inhibition at 0.1 µg/mL on mouse DGAT1 was not below 50%.

In turn, `CCOc1ccc(F)cc1NC(=O)Nc1ccc(N2CCN(C(=O)Nc3c(Cl)cccc3Cl)CC2)cc1` [Example 94, 4-{4-[3-(2-ethoxy-5-fluoro-phenyl)-ureido]-phenyl}-piperazine-1-carboxylic acid (2,6-dichloro-phenyl)-amide] displayed a melting point of 212 to 214 °C. Moreover, the inhibition at 0.1 µg/mL at mouse DGAT1 was not below 50%.
